Laboratory results published in publication PMC6300691, “Enhancement of Heat Stability and Kinetic Parameters of the Maize Endosperm ADP-Glucose Pyrophosphorylase by Mutagenesis of Amino Acids in the Small Subunit With High B Factors” (Frontiers in Plant Science, 2018).

Key:
[1] = biological target: K403R (Zea mays, UniProt P55241+Q947C0, K403R); test: Activation constant from initial rates with varied 3-PGA (0-1 mM) at 2 mM ATP and 2 mM G-1-P, pH 7.4, 15 mM MgCl2, fitted to V = Vmin + Vmax*X/(Ka + X).; format: biochemical; set-up: BT2 variant with wild type SH2, E. coli, purified
Text: All reactions were developed as above.

[2] = biological target: T1, K402R (Zea mays, UniProt P55241+Q947C0, K402R); test: Initial-rate assay (PPi formation coupled to NADH oxidation) with varied ATP (0.05-3.0 mM) at 2.0 mM G-1-P, 2.5 mM 3-PGA, 15 mM MgCl2, 50 mM HEPES pH 7.4, hyperbolic fit.; format: biochemical; settings: read-out: KM ATP
T1 construct: BT2 variant with wild type SH2, E. coli, purified
Text: (§1) All saturation plots were hyperbolic. No cooperative effects were seen.

[3] = biological target: T2, E123G, R331K (Zea mays, UniProt P55241+Q947C0, E123G/R331K); test: as above; format: biochemical; settings: read-out: KM ATP
T2 construct: BT2 variant with wild type SH2, E. coli, purified
Text: as §1

[4] = biological target: T3, D242H (Zea mays, UniProt P55241+Q947C0, D242H); test: as above; format: biochemical; settings: read-out: KM ATP
T3 construct: BT2 variant with wild type SH2, E. coli, purified
Text: as §1

[5] = biological target: T4, E123G, R331K, L404H (Zea mays, UniProt P55241+Q947C0, E123G/R331K/L404H); test: as above; format: biochemical; settings: read-out: KM ATP
T4 construct: BT2 variant with wild type SH2, E. coli, purified
Text: as §1

[6] = biological target: T5, L404K (Zea mays, UniProt P55241+Q947C0, L404K); test: as above; format: biochemical; settings: read-out: KM ATP
T5 construct: BT2 variant with wild type SH2, E. coli, purified
Text: as §1

[7] = biological target: T6, K403L (Zea mays, UniProt P55241+Q947C0, K403L); test: as above; format: biochemical; settings: read-out: KM ATP
T6 construct: BT2 variant with wild type SH2, E. coli, purified
Text: as §1

[8] = biological target: T7, R331K (Zea mays, UniProt P55241+Q947C0, R331K); test: as above; format: biochemical; settings: read-out: KM ATP
T7 construct: BT2 variant with wild type SH2, E. coli, purified
Text: as §1

[9] = biological target: T8, E123G, R331K, K402R (BT2-BF) (Zea mays, UniProt P55241+Q947C0, E123G/R331K/K402R); test: as above; format: biochemical; settings: read-out: KM ATP
T8 construct: BT2-BF with wild type SH2 (SH2-WT/BT2-BF), E. coli, purified
T8 sequence (Q947C0 1-475 E123G/R331K/K402R): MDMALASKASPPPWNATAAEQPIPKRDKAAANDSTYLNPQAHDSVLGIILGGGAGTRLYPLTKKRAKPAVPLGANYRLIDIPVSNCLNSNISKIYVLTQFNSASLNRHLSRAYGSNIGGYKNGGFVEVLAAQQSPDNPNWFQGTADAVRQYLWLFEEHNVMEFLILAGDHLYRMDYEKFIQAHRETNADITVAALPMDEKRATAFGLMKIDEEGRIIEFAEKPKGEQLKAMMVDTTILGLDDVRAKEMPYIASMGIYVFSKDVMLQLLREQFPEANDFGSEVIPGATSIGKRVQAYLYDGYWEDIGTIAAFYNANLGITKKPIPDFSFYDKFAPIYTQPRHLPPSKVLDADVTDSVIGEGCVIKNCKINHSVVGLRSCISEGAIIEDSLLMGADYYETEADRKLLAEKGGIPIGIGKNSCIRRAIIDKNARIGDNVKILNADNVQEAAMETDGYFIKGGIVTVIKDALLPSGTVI
T8 sequence (P55241 46-516): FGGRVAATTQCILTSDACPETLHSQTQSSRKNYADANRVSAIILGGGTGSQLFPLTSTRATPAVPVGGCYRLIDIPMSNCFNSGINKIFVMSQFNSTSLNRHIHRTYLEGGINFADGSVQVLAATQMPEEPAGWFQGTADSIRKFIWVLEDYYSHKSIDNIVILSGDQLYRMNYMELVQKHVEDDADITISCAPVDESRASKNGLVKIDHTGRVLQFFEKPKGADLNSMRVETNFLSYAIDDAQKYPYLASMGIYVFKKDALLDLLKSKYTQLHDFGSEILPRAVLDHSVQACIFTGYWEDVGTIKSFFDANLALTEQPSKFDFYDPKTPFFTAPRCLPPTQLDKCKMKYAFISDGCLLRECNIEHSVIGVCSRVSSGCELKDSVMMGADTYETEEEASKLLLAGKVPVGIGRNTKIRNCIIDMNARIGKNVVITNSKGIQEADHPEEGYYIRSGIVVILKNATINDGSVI
Text: as §1

[10] = biological target: T9, E123G, R331K, K402R, L404H (Zea mays, UniProt P55241+Q947C0, E123G/R331K/K402R/L404H); test: as above; format: biochemical; settings: read-out: KM ATP
T9 construct: BT2 quadruple variant with wild type SH2, E. coli, purified
Text: as §1

[11] = biological target: T10, L404E (Zea mays, UniProt P55241+Q947C0, L404E); test: as above; format: biochemical; settings: read-out: KM ATP
T10 construct: BT2 variant with wild type SH2, E. coli, purified
Text: as §1

[12] = biological target: T11, K403E (Zea mays, UniProt P55241+Q947C0, K403E); test: as above; format: biochemical; settings: read-out: KM ATP
T11 construct: BT2 variant with wild type SH2, E. coli, purified
Text: as §1

[13] = biological target: T12, E123Q (Zea mays, UniProt P55241+Q947C0, E123Q); test: as above; format: biochemical; settings: read-out: KM ATP
T12 construct: BT2 variant with wild type SH2, E. coli, purified
Text: as §1

[14] = biological target: wt (SH2-WT/BT2-WT) (Zea mays, UniProt P55241+Q947C0); settings: read-out: Km (mM), varied substrate ATP, Pi inhibition in the absence of 3-PGA
Chain of wt (SH2-WT/BT2-WT) (Q947C0 1-475, one chain of several): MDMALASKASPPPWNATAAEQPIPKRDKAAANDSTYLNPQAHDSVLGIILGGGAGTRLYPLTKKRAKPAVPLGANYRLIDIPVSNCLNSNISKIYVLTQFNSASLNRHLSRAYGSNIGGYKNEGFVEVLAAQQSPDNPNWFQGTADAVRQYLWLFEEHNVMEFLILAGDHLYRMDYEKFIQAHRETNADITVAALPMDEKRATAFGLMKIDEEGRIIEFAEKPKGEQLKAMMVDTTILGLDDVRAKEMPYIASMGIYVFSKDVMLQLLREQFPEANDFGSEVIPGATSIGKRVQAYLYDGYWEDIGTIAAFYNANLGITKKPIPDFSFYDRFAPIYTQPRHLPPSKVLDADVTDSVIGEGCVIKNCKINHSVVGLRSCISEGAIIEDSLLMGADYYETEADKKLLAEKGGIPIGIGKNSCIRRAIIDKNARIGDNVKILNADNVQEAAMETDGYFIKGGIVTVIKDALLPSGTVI
Procedure: Pi inhibition was carried out in both the presence and absence of 3-PGA with the Pi and substrate concentrations listed below.
Pi inhibition patterns in the presence and absence of 3PGA were also determined. Pi inhibition patterns were obtained by varying one substrate at several fixed concentrations of Pi, while holding the co-substrate at constant sub-saturating levels.

T4 sequence (Q947C0 1-475 E123G/R331K/L404H, one chain of several): as the sequence (Q947C0 1-475, one chain of several) above, with E123G, R331K, L404H counted along it
T6 sequence (Q947C0 1-475 K403L, one chain of several): as the sequence (Q947C0 1-475, one chain of several) above, with K403L counted along it
T5 sequence (Q947C0 1-475 L404K, one chain of several): as the sequence (Q947C0 1-475, one chain of several) above, with L404K counted along it
T7 sequence (Q947C0 1-475 R331K, one chain of several): as the sequence (Q947C0 1-475, one chain of several) above, with R331K counted along it
Chain of K403R (Q947C0 1-475 K403R, one chain of several): as the sequence (Q947C0 1-475, one chain of several) above, with K403R counted along it
T12 sequence (Q947C0 1-475 E123Q, one chain of several): as the sequence (Q947C0 1-475, one chain of several) above, with E123Q counted along it
T2 sequence (Q947C0 1-475 E123G/R331K, one chain of several): as the sequence (Q947C0 1-475, one chain of several) above, with E123G, R331K counted along it
T11 sequence (Q947C0 1-475 K403E, one chain of several): as the sequence (Q947C0 1-475, one chain of several) above, with K403E counted along it
T9 sequence (Q947C0 1-475 E123G/R331K/K402R/L404H, one chain of several): as the sequence (Q947C0 1-475, one chain of several) above, with E123G, R331K, K402R, L404H counted along it
T10 sequence (Q947C0 1-475 L404E, one chain of several): as the sequence (Q947C0 1-475, one chain of several) above, with L404E counted along it
T1 sequence (Q947C0 1-475 K402R, one chain of several): as the sequence (Q947C0 1-475, one chain of several) above, with K402R counted along it
T3 sequence (Q947C0 1-475 D242H, one chain of several): as the sequence (Q947C0 1-475, one chain of several) above, with D242H counted along it

Structure (SMILES) | 3-PGA Ka (activation constant) [1] | Km [2] [µM] | Km [3] [µM] | Km [4] [µM] | Km [5] [µM] | Km [6] [µM] | Km [7] [µM] | Km [8] [µM] | Km [9] [µM] | Km [10] [µM] | Km [11] [µM] | Km [12] [µM] | Km [13] [µM] | Km [14] [mM]
O=C(O)[C@H](O)COP(=O)(O)O [3-PGA, 3-phosphoglycerate (3-phosphoglyceric acid)] | 0.22 ± 0.057 |  |  |  |  |  |  |  |  |  |  |  |  | 
Nc1ncnc2c1ncn2[C@@H]1O[C@H](COP(=O)(O)OP(=O)(O)OP(=O)(O)O)[C@@H](O)[C@H]1O [ATP, adenosine 5'-triphosphate] |  | 79 ± 15 | 80 ± 5 | 110 ± 16 | 67 ± 10 | 43 ± 9 | 82 ± 17 | 88 ± 13 | 60 ± 7 | 91 ± 8 | 135 ± 47 | 69 ± 12 | 52 ± 6 | 20.4 ± 10.1
